Reference: PMC8309046 (Pharmaceutics, 2021)
Structures can show the parent of a compound that is named as a salt. Where two headings read alike, the source gives them in different places.

Assays:
holo-BpsA = target: T1, holo-BpsA (Streptomyces lavendulae, UniProt Q1MWN4); assay: Counter-screen against pre-activated holo-BpsA (indigoidine synthesis); format: biochemical; details: for Inhibition of indigoidine synthesis by holo-BpsA in LOPAC1280 counter-screen: 0.6 µM holo-BpsA, no PPTase, screening concentration; for inhibition at 40 µM: read-out: Inhibition of holo-BpsA; for Inhibition of holo-BpsA: re-screen at higher concentration of 40 µM
T1 construct: made in house; host or cells: E. coli BL21(DE3) ΔentD
T1 sequence (Q1MWN4 1-1282): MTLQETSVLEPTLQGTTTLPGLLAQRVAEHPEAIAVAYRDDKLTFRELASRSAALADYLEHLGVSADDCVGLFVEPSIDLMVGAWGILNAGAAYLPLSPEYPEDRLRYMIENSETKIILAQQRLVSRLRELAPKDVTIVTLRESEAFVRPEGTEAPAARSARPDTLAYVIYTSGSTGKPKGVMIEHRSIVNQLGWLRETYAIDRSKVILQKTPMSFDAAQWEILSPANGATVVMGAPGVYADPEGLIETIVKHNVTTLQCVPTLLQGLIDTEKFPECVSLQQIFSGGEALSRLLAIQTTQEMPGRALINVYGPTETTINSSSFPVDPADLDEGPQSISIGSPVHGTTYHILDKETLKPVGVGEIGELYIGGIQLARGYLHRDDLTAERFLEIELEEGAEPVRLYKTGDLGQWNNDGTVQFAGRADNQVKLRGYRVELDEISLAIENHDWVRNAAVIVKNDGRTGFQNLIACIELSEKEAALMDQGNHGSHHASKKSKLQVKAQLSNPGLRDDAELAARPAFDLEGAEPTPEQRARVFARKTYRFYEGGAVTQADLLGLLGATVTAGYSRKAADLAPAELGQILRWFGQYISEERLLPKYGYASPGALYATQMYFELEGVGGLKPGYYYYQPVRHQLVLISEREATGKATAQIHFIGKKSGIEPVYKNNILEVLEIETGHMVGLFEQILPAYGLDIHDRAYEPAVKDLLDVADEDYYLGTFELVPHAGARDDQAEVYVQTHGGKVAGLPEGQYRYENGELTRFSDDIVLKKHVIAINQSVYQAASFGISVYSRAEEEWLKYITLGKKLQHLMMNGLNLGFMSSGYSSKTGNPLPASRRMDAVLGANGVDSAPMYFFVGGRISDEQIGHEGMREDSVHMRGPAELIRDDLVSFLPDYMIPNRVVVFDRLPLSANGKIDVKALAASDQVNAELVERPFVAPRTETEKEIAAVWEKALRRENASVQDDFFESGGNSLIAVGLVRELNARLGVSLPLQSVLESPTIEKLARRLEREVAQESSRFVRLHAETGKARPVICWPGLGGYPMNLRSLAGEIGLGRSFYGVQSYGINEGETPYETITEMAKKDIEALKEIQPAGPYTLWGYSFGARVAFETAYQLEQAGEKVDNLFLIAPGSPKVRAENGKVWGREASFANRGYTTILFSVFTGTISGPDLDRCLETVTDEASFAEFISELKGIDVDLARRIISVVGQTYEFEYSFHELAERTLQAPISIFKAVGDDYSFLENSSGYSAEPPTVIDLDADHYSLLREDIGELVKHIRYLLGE
Experimental: The Sigma-Aldrich LOPAC^1280 collection was first diluted to a working stock of […] per compound. To screen the collection, 88 reactions at a time were established in columns 1–11 of a standard 96 well-plate. Each was prepared from 30 µL of reaction mix comprising 50 mM Tris-Cl (pH 8.0), 0.01% (v/v) Triton-X, 10 mM MgCl2, 5 mM ATP, 5 mM L-glutamine and 10 µM CoA. Next, a CyBio liquid handler was used to pin 2 µL of compound into columns 2–11 and 2 µL of DMSO into column 1. To screen for PptT inhibitors, 10 µL of PPTase mix comprising a freshly-prepared stock of 0.4 µM PptT and 50 mM Tris-Cl (pH 8.0) was added to wells A1–C1 and columns 2–11 (see Supplementary Figure S1). To initiate indigoidine synthesis, 10 µL of 0.6 µM apo-BpsA in 50 mM Tris-Cl (pH 8.0) was added to each well. To screen for holo-BpsA inhibitors, an equivalent screening format was established only using 0.6 µM holo-BpsA and with no PPTase mix added. Each plate was then shaken at 1000 rpm for 10 s and incubated at room temperature for 1 h. Indigoidine was then resolubilised by the addition of 200 µL DMSO and incubation at 37 °C with shaking at 200 rpm for 0.5 h. A Perkin Elmer Enspire plate reader was then used to record the absorbance readings at 590 nm. The Python package Pandas was used to process the data, which was then visualised using the Python package Seaborn.

PptT [1] = target: T2, PptT (Mycobacterium tuberculosis, UniProt O33336); assay: LOPAC1280 single-point BpsA (indigoidine) end-point screen for PptT inhibitors; format: biochemical; details: for activity at 20 µM / % Activity in PptT Screen: single concentration (20 µM per Figure S4), 0.4 µM PptT, 0.6 µM apo-BpsA, 10 µM CoA, A590 relative to no-inhibitor positive controls
T2 sequence (O33336 whole entry): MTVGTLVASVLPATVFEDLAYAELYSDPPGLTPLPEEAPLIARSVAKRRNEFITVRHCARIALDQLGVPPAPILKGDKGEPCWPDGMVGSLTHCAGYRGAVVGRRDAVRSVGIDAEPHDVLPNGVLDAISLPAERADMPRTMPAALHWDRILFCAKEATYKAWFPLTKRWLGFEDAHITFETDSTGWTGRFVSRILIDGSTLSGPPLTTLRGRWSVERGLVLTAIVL

Sfp = system: Sfp; design: method as in PMID 24192555; details: cited from earlier work
SARS-CoV-2 protease = details: LOPAC1280 screen, FRET-based reporter; cited from earlier work
M. tuberculosis PptT = system: M. tuberculosis PptT; design: method as in PMID 24963544; details: cited from earlier work
PptT [2] = target: T2, PptT; assay: BpsA end-point dose-response assay of PptT inhibition (EC50); format: biochemical; details: for EC50: end-point assay, two-fold serial dilution from 40 µM, 0.4 µM PptT, 0.6 µM apo-BpsA, three independent replicates ± standard error
PPTases = system: PPTases; design: method as in PMID 20094656, PMID 21466506, PMID 33118808; details: cited from earlier work
PptT [3] = target: T2, PptT; format: biochemical; details: kinetic assay, serial dilution 200 µM to 0.2 µM; 0.4 µM PptT, 0.6 µM apo-BpsA

Compound	% Activity in PptT Screen (PptT [1]) [%]	Hit as SARS-CoV-2 protease inhibitor (SARS-CoV-2 protease)	EC50 (PptT [2]) [µM]	other results
Cc1ccc(C(=O)Nc2ccc(S(=O)(=O)O)c3cc(S(=O)(=O)O)cc(S(=O)(=O)O)c23)cc1NC(=O)c1cccc(NC(=O)Nc2cccc(C(=O)Nc3cc(C(=O)Nc4ccc(S(=O)(=O)O)c5cc(S(=O)(=O)O)cc(S(=O)(=O)O)c45)ccc3C)c2)c1 [suramin hexasodium]				Inhibition of indigoidine synthesis by holo-BpsA in LOPAC1280 counter-screen (holo-BpsA): inhibiting indigoidine synthesis
O=C(O)c1cc[c]([Hg][Cl])cc1 [4-chloromercuribenzoic acid]				Inhibition of indigoidine synthesis by holo-BpsA in LOPAC1280 counter-screen (holo-BpsA): inhibiting indigoidine synthesis
CC(=O)c1c(O)c(C)c(O)c(Cc2c(O)c3c(c(C(=O)/C=C/c4ccccc4)c2O)OC(C)(C)C=C3)c1O [Rottlerin]				activity at 20 µM (PptT [1]): 48%
COc1cc(/C=C(\C#N)C(=O)c2ccc(O)c(O)c2)cc(I)c1O [I-OMe-Tyrphostin AG 538]	40			
C[n+]1cc2c3c(ccc2c2ccc4cc5c(cc4c21)OCO5)OCO3 [Sanguinarine chloride]		strong protease inhibitors		inhibition at 40 µM (holo-BpsA): < 15%; Reported as inhibitor of Sfp (Sfp): inhibitor; activity at 20 µM (PptT [1]): 44%; Reported as inhibitor of M. tuberculosis PptT (M. tuberculosis PptT): inhibitor
CN(C)CC/C=C1/c2ccccc2Sc2ccc(Cl)cc21 [chlorprothixene hydrochloride]				Inhibition of indigoidine synthesis by holo-BpsA in LOPAC1280 counter-screen (holo-BpsA): inhibiting indigoidine synthesis; Registered as inhibitor of PptT in primary screen (result in words) (PptT [1]; LOPAC1280 primary screen): did not register as an inhibitor of PptT
Nc1c(S(=O)(=O)O)cc(Nc2ccc(Nc3nc(Cl)nc(Nc4cccc(S(=O)(=O)O)c4)n3)c(S(=O)(=O)O)c2)c2c1C(=O)c1ccccc1C2=O [Reactive Blue 2]				activity at 20 µM (PptT [1]): 38%
Tyrphostin AG 808	34			
CC(C)(C)c1ccc(S(=O)(=O)/C=C/C#N)cc1 [Bay 11-7085]	10	strong protease inhibitors	7.4 ± 0.4	
CCCCCCCCCCC/C=C\C(C)(C)/C=C\CCCC(=O)O [7,7-Dimethyl-(5z,8z)-eicosadienoic acid]	49			Inhibition of holo-BpsA (holo-BpsA): less than 15%
CCN(CC)C(=S)SSC(=S)N(CC)CC [Disulfiram]		strong protease inhibitors	6 ± 1.5	inhibition at 40 µM (holo-BpsA): < 15%; activity at 20 µM (PptT [1]): 9%
Br.CN=c1nc(-c2ccccc2)n(-c2ccccc2)s1 [SCH-202676 hydrobromide]	0.7		5.9 ± 0.1	Inhibition of holo-BpsA (holo-BpsA): noticeably inhibitory
COc1ccc2c(c1)CC[C@@H]1[C@@H]2CC[C@]2(C)[C@@H](NCCCCCCN3C(=O)C=CC3=O)CC[C@@H]12 [U-73122]	44	strong protease inhibitors	8.1 ± 0.5	
O=C1Nc2ccc(I)cc2/C1=C/c1cc(Br)c(O)c(Br)c1 [GW5074]	43			
Br.CCCN(CCC)C1CCc2cccc(O)c2C1 (stereo not shown) [8-hydroxy-DPAT hydrobromide]				Inhibitory activity on PptT in serial dilution (result in words) (PptT [2]; two-fold serial dilutions (40 µM to 0.3 µM) in PptT/apo-BpsA reaction mix): no inhibitory activity was observed
O=C(O)C1=CC(=C(c2ccc(O)c(C(=O)O)c2)c2ccc(O)c(C(=O)O)c2)C=CC1=O [Aurintricarboxylic acid]		strong protease inhibitors	4.8 ± 0.9	activity at 20 µM (PptT [1]): 32%
O=Nc1ccc2oc(=O)ccc2c1 [6-Nitroso-1,2-benzopyrone]	12	strong protease inhibitors	8.3 ± 1.7	Inhibition of holo-BpsA (holo-BpsA): less than 15%; Activity in vitro against PPTases (PPTases): activity in vitro against numerous PPTases; EC50 (PptT [3]): 4.4 ± 1.2 µM
N#C/C(=C\c1ccc(O)c(O)c1)C(=O)NCCCNC(=O)/C(C#N)=C/c1ccc(O)c(O)c1 [Tyrphostin AG 537]	35		5.9 ± 0.5	
N#C/C(=C\c1ccc(O)c(O)c1)C(=O)c1ccc(O)c(O)c1 [Tyrphostin AG 538]	24		6.4 ± 0.7	
NC(Cc1cc(O)c(O)cc1O)C(=O)O (racemic) [6-Hydroxy-DL-DOPA]	26	strong protease inhibitors		Inhibition of holo-BpsA (holo-BpsA): less than 15%
N=C1Sc2ccccc2C2=NCCCN12 [PD 404, 182]	35	strong protease inhibitors		
O=c1c2ccccc2[se]n1-c1ccccc1 [ebselen]				Inhibition of indigoidine synthesis by holo-BpsA in LOPAC1280 counter-screen (holo-BpsA): inhibiting indigoidine synthesis
